Values joined by “and” are separate entries in the source; they are usually repeats but may differ in a detail not shown here. Identical values can stand only once.
Legend:
[1] = system: Human Aortic SMC (HAoSMC); experiment: HAoSMC cell proliferation assay (CellTiter Aqueous, 72 hours); type: cell-based
Experimental: Cell proliferation assay was done in 96-well format. Low passage cells were trypsinized and seeded in 96 well plates at a density of ~4000 cells/well. The cells are allowed to attach overnight in a CO2 incubator. Next day, the medium was removed and replaced with fresh complete medium containing various concentrations of the test compounds. The final concentration of vehicle (DMSO) in the test medium was 0.1%. After adding test compounds, the cells were incubated for 72 hours. Following this period, the medium was removed and then added fresh medium (100 μl) containing CellTiter Aqueous (1× concentration final) to the wells and incubated for 2 hours in the CO2 incubator. At the end of incubation measured […] with a plate-reader. Controlled incubations with untreated cells and blank incubations containing only medium were included and tested similarly. Based on the cell viability assay the percentage inhibition of the cell proliferation was determined at the different concentrations of the drug tested.
Following the cell proliferation assay as indicated earlier, the percent cell proliferation inhibition was determined, and the assay results plotted to determine the IC50.

[2] = system: blood clotting (citrated sheep blood); experiment: Activated clotting time (ACT) in citrated sheep blood (Example 2); conditions: single drug, 0.6 ng/mg
Experimental: The activated clotting time (ACT) evaluation of anticoagulants was performed in calcium citrate sheep blood and recorded employing the Hemochron® Response device.
The ACT measurements were made in citrated sheep blood. 1.9 ml of citrated sheep blood was added to a test tube containing an activator (Hemochron@Celite@ ACT tubes, Lot F8FTE026 from Accriva Diagnostics, Inc.). A target amount of drug solution was then added into the test tube. The test tube was gently swirled so that the blood and drug was well-mixed. 0.1 ml of 0.3M calcium chloride was then added. The tube was gently shaken before being inserted into the Hemochron Response detector. The ACT read out was recorded and reported. The ACT of the control blood in the absence of any drug as first determined to establish a baseline. Then ACT was determined in the presence of different concentrations of the drug as a single component. Selected drug combinations were then tested to evaluate for potential synergy in action between the two drugs.

[3] = system: blood clotting (citrated sheep blood); experiment: Net activated clotting time (net ACT) in citrated sheep blood (Examples 3-5); set-up: key: seconds; measured ACT minus blood control ACT (165 s); conditions: single drug, blood control 165 seconds
Experimental: The activated clotting time (ACT) evaluation of anticoagulants was performed in calcium citrate sheep blood and recorded employing the Hemochron® Response device. The ACT measurements were made in citrated sheep blood. 1.9 ml of citrated sheep blood was added to a test tube containing an activator (Hemochron@Celite@ ACT tubes, Lot F8FTE026 from Accriva Diagnostics, Inc.). A target amount of drug solution was then added into the test tube. The test tube was gently swirled so that the blood and drug were well-mixed. 0.1 ml of 0.3M calcium chloride was then added. The tube was gently shaken before being inserted into the Hemochron Response detector. The ACT read out was recorded and reported. The ACT of the control blood in the absence of any drug as first determined to establish a baseline. Here the blood control measured is 165 seconds. Then ACT was determined in the presence of different concentrations of the drug as a single component. In the following study, the net ACT (measured ACT minus blood control ACT) was utilized to visualize the synergistic effect of direct factor Xa inhibitor (Rivaroxaban) and direct factor IIa inhibitor (Argatroban) drug combinations. The figures are presented in ng/mg wherein the density of blood and tissue are approximately the same.
Example 4 is the continuation of example 3, which employed the same method as in example 3. The only difference is that the direct factor Xa inhibitor Edoxaban is used in place of direct factor Xa inhibitor Rivaroxaban.
Example 5 is the continuation of example 3, which employed the same method as in example 3. The only difference is that the direct factor Xa inhibitor Betrixaban is used in place of direct factor Xa inhibitor Rivaroxaban.

[4] = system: blood clotting (heparinized sheep blood); experiment: Net ACT initiated by platelet activation factor (PAF) and CaCl2 in heparinized sheep blood (Examples 6-11); conditions: single drug, 0.05 ng/mg; PAF & CaCl2; blood control 235 seconds
Experimental: In order to examine the potential synergistic effects between anti-inflammatory agents, direct factor Xa inhibitors, direct factor IIa inhibitors, antiplatelets (P2Y12 inhibitor and glycoprotein IIb/IIIa inhibitor, platelet activation factor and CaCl2 were utilized by measuring ACT. Heparinized sheep blood was used to preserve platelet function.
The activated clotting time (ACT) evaluation initiated by platelet activation factor (PAF) and calcium chloride (CaCl2) was performed in heparinized sheep blood and recorded employing the Hemochron® Response device. […] A target amount of drug solution was then added into the test tube. The test tube was gently swirled so that the blood and drug were well-mixed. […] The tube was gently shaken before being inserted into the Hemochron Response detector. The ACT read out was recorded and reported. The ACT of the control heparinized sheep blood in the absence of any drug as first measured to establish a baseline. […] Then ACT was measured in the presence of different concentrations of the drug measured. Selected drug combinations were then tested to evaluate for potential synergy in action between the drug combination. The net ACT (ACT minus blood control ACT) was utilized to visualize the synergistic effect. […] The figures are presented in ng/mg wherein the density of blood and tissue are approximately the same.

porcine coronary artery = experiment: In vivo porcine coronary stent implantation: fibrin score and late lumen loss (Examples 25-26); conditions: Table 9, day 7
Experimental: The drug eluting stent systems containing different anticoagulants prepared as described in Example 11 were evaluated at 3 hours, 6 hours, 1 day, 3 days, 6 days, 7 days, or 28 days following implantation in a porcine coronary artery model.
The porcine model was chosen as this model has been used extensively for stent and angioplasty studies resulting in a large volume of data on the vascular response properties and its correlation to human vascular response (Schwartz et al, Circulation. 2002; 106:1867 1873). The animals were housed and cared for in accordance with the Guide for the Care and Use of Laboratory Animals as established by the National Research Council.
After induction of anesthesia, the left or right femoral artery was accessed using standard techniques and an arterial sheath was introduced and advanced into the artery. Vessel angiography was performed under fluoroscopic guidance, a 7 Fr. guide catheter was inserted through the sheath and advanced to the appropriate location where intracoronary nitroglycerin was administered. An appropriate implantation segment of coronary artery was randomly selected and a 0.014″ guidewire inserted. Quantitative Coronary Angiography (QCA) was performed to document the results. The appropriately size stent was advanced to the deployment site. The balloon was inflated at a steady rate to a pressure sufficient to achieve a balloon to artery ratio of approximately 1.1 to 1.0.
Follow up angiography was performed at the designated timepoint for each of the animals. Late lumen loss (LLL) can be expressed as: […]
The LLL is an indicator of the amount smooth muscle cell (SMC) proliferation or inhibition. It is used to measure efficacy between drugs for SMC proliferation inhibition. The smaller the LLL, the better the efficacy of the drug.
Stented portions of coronary arteries were embedded in methyl methacrylate (MMA), then divided into a target of at least three blocks of approximately similar lengths for histology evaluation. Quantitative histopathological evaluation of stented artery sections was then performed and scored as indicated. For Fibrin formation, scores ranged from 0 to 3, with a score of 0 indicating absent or rare minimal spotting around struts of the stent, a score of 1 indicating the presence of fibrin in small amounts localized only around the struts, a score of 2 indicating the moderately abundant or denser presence of fibrin around and extending beyond the struts, and a score of 3 indicating the presence of abundant and dense fibrin and/or bridging of the fibrin between the struts. The mean score was calculated and reported. The mean of each section was then averaged to provide a mean fibrin score per stent. The smaller the fibrin score, the better efficacy.

[5] = In vivo drug release from / drug remaining on implanted stents (HPLC); set-up: species or system porcine; conditions: 14 mm stents, day 7, n = 3
Experimental: The percentage and/or amount of each anticoagulant drug for or by each time point indicated were analyzed for each stent from the different devices in the example and the average drug tissue concentration reported.
Tissue concentrations and the amount of drug released from the stents were measured using stents implanted in porcine arteries for the drugs as indicated. The arteries at the designated time point were excised and a length of stented artery spanning from 5 mm proximal to the stented segment to 5 mm distal to the stented segment was cut. The stented artery was cut longitudinally with surgical scissors. The stents were separated from the tissue. The tissue content of each drug was analyzed using liquid chromatography mass spectroscopy (LCMS) and reported as a mean for each of the timepoint indicated. For drug remaining on each stent, each drug was extracted from the stent, measured using HPLC, and reported as a mean for each of the timepoint indicated as drug released or drug remaining on a stent (where drug remaining is equal to 100% minus the percentage of drug released).

[6] = system: platelets (Tissue factor generated antiplatelet); conditions: cited from earlier work
Factor IIa = conditions: cited from earlier work

Cumulative Percent Release of drug by day 7: Argatroban [5]: at least 96.9%
Structure (SMILES): CC1CNc2c(cccc2S(=O)(=O)N[C@@H](CCCNC(=N)N)C(=O)N2CC[C@@H](C)C[C@@H]2C(=O)O)C1 (stereo partly drawn) [Argatroban]
HAoSMC proliferation inhibition [1]: small to no inhibition
ACT [2]: 301
net ACT ([3]; 0.15 ng/mg): 42 and 46
net ACT ([3]; 0.3 ng/mg): 54
net ACT [4]: 56 s
LLL / smooth muscle cell proliferation compared to bare metal control stents (porcine coronary artery): larger LLLs compared to control
inhibition of fibrin formation compared to bare metal control stents (porcine coronary artery): not effective at inhibiting fibrin formation
IC50 [6]: 79 nM
IC50 for Tissue factor generated antiplatelet [6]: 0.04 ng/mg
IC50 for Anti-Factor IIa (Factor IIa): 0.0107 ng/mg
IC50 (Factor IIa; read-out: IC50 for Anti-Factor IIa): 21 nM

— patent US20260315653A1, “ANTICOAGULANT COMPOSITIONS COMPRISING ANTI-PLATELET AND ANTI-INFLAMMATORY DRUGS AND METHODS AND DEVICES FOR THEIR USE” (Elixir Medical Corporation, priority 2023, published 2026)
